Test results from patent US11214594B2, “Antimicrobial peptide having synergistic antibacterial effect with antibiotics on multidrug resistant bacteria, and use thereof” (priority 2016, dated 2022).
Values after ≈ are worked out from the molar mass of the structure shown. Where a SMILES comes first, the peptide text is derived from it. [ ]: non-standard residue; d: D form.

Key:
E. coli [1] = experiment: microbe, parasite or virus in culture; format: cell-based, Escherichia coli; conditions: 16 h
Outline: (§1)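 MIC read-out = lowest peptide level with no bacterial proliferation. Strains diluted in MH medium to 2×10^6 CFU; peptide twofold serial dilutions in MH added 1:1 in microtiter wells.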

MDREC 1229 [2] = experiment: microbe, parasite or virus in culture; format: cell-based, Escherichia coli
Outline: as §1

MDRAB 12036 = format: cell-based, Acinetobacter baumannii
Outline: as §1

MDRST 8007 = experiment: Minimal inhibitory concentration (MIC), single agent; format: cell-based, Salmonella typhimurium; conditions: agent alone
Outline: as §1

B. subtilis = experiment: microbe, parasite or virus in culture; format: cell-based, Bacillus subtilis
Outline: as §1

S. aureus = experiment: microbe, parasite or virus in culture; format: cell-based, Staphylococcus aureus
Outline: as §1

E. coli [3] = experiment: MIC of antibiotic during combined treatment with antimicrobial peptide; format: cell-based, Escherichia coli; conditions: for Antibiotic MIC, Erythromycin / Antibiotic MIC, Linezolid / Antibiotic MIC, Vancomycin: E. coli
Outline: (§2)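 Using MH broth, we determined combination MICs by titrating the antibiotic into wells and then repeating under the reverse dilution scheme.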

MDREC 1229 [4] = experiment: as above; format: cell-based, Escherichia coli
Outline: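 Broth microdilution in MH medium; strains were diluted to 2×10^6 CFU per ml before plating. Peptide was serially diluted stepwise at 2:1 starting from its MIC, and MH-diluted antibiotic was then added to determine MIC. The reversed arrangement was also tested.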

A. baumannii = experiment: as above; format: cell-based, Acinetobacter baumannii
Outline: as §2

[5] = peptide treatment concentration 1 μg/ml
[6] = peptide treatment concentration 2 μg/ml
[7] = peptide treatment concentration 4 μg/ml
[8] = peptide treatment concentration 6 μg/ml
[9] = peptide treatment concentration 8 μg/ml
[10] = peptide treatment concentration 16 μg/ml
[11] = peptide treatment concentration 32 μg/ml
[12] = peptide treatment concentration 64 μg/ml

CC[C@H](C)[C@H](NC(=O)[C@H](CCCCN)NC(=O)[C@H](Cc1c[nH]c2ccccc12)NC(=O)[C@@H](N)CCCNC(=N)N)C(=O)N[C@@H](Cc1ccccc1)C(=O)N[C@@H](CCCCN)C(=O)N[C@@H](CCCCN)C(=O)N[C@H](C(=O)N[C@H](CC(C)C)C(=O)N[C@@H](CCCCN)C(=O)N[C@@H](CC(C)C)C(=O)N[C@@H](CC(C)C)C(=O)N[C@@H](Cc1c[nH]cn1)C(=O)N[C@@H](CCC(=O)O)C(=O)N[C@@H](C)C(=O)N[C@@H](CCCCN)C(=O)N[C@@H](CCCCN)C(=O)N[C@@H](Cc1c[nH]c2ccccc12)C(N)=O)[C@@H](C)CC [PapMA-24, RWK IFK KIl KLL HEA KKW-NH2] (H-RWKIFKKI[dL]KLLHEAKKW-NH2; N-terminus assumed)
Minimal inhibitory concentration MIC (E. coli [1]): 32 µg/mL (≈ 13.5 µM)
Minimal inhibitory concentration MIC (MDREC 1229 [2]): 32 µg/mL (≈ 13.5 µM)
Peptide MIC, peptide alone (MDREC 1229 [2]): 32 µg/mL
Minimal inhibitory concentration MIC (MDRAB 12036): 32 µg/mL (≈ 13.5 µM)
Minimal inhibitory concentration MIC (MDRST 8007): 32 µg/mL (≈ 13.5 µM)
Minimal inhibitory concentration MIC (B. subtilis): >128 µg/mL
Minimal inhibitory concentration MIC (S. aureus): >128 µg/mL
Synergistic effect of antibacterial activity with existing antibiotics compared with PapMA-1 (E. coli [3]; E. coli and MDREC1229): level similar to that of the PapMA-1 peptide
Antibiotic MIC, Erythromycin (E. coli [3]; erythromycin combined with peptide at 1 μg/ml): 64 µg/mL
Antibiotic MIC, Erythromycin (E. coli [3]; erythromycin combined with peptide at 2 μg/ml): 32 µg/mL
Antibiotic MIC, Erythromycin (E. coli [3]; erythromycin combined with peptide at 4 μg/ml): 16 µg/mL
Antibiotic MIC, Erythromycin (E. coli [3]; erythromycin combined with peptide at 6 μg/ml): 4 µg/mL
Antibiotic MIC, Erythromycin (E. coli [3]; erythromycin combined with peptide at 8 μg/ml): 2 µg/mL
Antibiotic MIC, Erythromycin (E. coli [3]; erythromycin combined with peptide at 16 μg/ml): 0.5 µg/mL
Antibiotic MIC, Erythromycin (E. coli [3]; erythromycin combined with peptide at 32 μg/ml): 0 µg/mL
Antibiotic MIC, Erythromycin (E. coli [3]; erythromycin combined with peptide at 64 μg/ml): 0 µg/mL
Antibiotic MIC, Linezolid (E. coli [3]; linezolid combined with peptide at 1 μg/ml): >128 µg/mL
Antibiotic MIC, Linezolid (E. coli [3]; linezolid combined with peptide at 2 μg/ml): 128 µg/mL
Antibiotic MIC, Linezolid (E. coli [3]; linezolid combined with peptide at 4 μg/ml): 64 µg/mL
Antibiotic MIC, Linezolid (E. coli [3]; linezolid combined with peptide at 6 μg/ml): 32 µg/mL
Antibiotic MIC, Linezolid (E. coli [3]; linezolid combined with peptide at 8 μg/ml): 32 µg/mL
Antibiotic MIC, Linezolid (E. coli [3]; linezolid combined with peptide at 16 μg/ml): 8 µg/mL
Antibiotic MIC, Linezolid (E. coli [3]; linezolid combined with peptide at 32 μg/ml): 0 µg/mL
Antibiotic MIC, Linezolid (E. coli [3]; linezolid combined with peptide at 64 μg/ml): 0 µg/mL
Antibiotic MIC, Vancomycin (E. coli [3]; vancomycin combined with peptide at 1 μg/ml): >128 µg/mL
Antibiotic MIC, Vancomycin (E. coli [3]; vancomycin combined with peptide at 2 μg/ml): >128 µg/mL
Antibiotic MIC, Vancomycin (E. coli [3]; vancomycin combined with peptide at 4 μg/ml): 128 µg/mL
Antibiotic MIC, Vancomycin (E. coli [3]; vancomycin combined with peptide at 6 μg/ml): 32 µg/mL
Antibiotic MIC, Vancomycin (E. coli [3]; vancomycin combined with peptide at 8 μg/ml): 16 µg/mL
Antibiotic MIC, Vancomycin (E. coli [3]; vancomycin combined with peptide at 16 μg/ml): 8 µg/mL
Antibiotic MIC, Vancomycin (E. coli [3]; vancomycin combined with peptide at 32 μg/ml): 0 µg/mL
Antibiotic MIC, Vancomycin (E. coli [3]; vancomycin combined with peptide at 64 μg/ml): 0 µg/mL
Antibiotic MIC, Erythromycin (MDREC 1229 [4]; [5]): 128 µg/mL
Antibiotic MIC, Linezolid (MDREC 1229 [4]; [5]): >128 µg/mL
Antibiotic MIC, Vancomycin (MDREC 1229 [4]; [5]): >128 µg/mL
Antibiotic MIC, Erythromycin (MDREC 1229 [4]; [6]): 64 µg/mL
Antibiotic MIC, Linezolid (MDREC 1229 [4]; [6]): 128 µg/mL
Antibiotic MIC, Vancomycin (MDREC 1229 [4]; [6]): >128 µg/mL
Antibiotic MIC, Erythromycin (MDREC 1229 [4]; [7]): 32 µg/mL
Antibiotic MIC, Linezolid (MDREC 1229 [4]; [7]): 64 µg/mL
Antibiotic MIC, Vancomycin (MDREC 1229 [4]; [7]): >128 µg/mL
Antibiotic MIC, Erythromycin (MDREC 1229 [4]; [8]): 8 µg/mL
Antibiotic MIC, Linezolid (MDREC 1229 [4]; [8]): 64 µg/mL
Antibiotic MIC, Vancomycin (MDREC 1229 [4]; [8]): 64 µg/mL
Antibiotic MIC, Erythromycin (MDREC 1229 [4]; [9]): 2 µg/mL
Antibiotic MIC, Linezolid (MDREC 1229 [4]; [9]): 32 µg/mL
Antibiotic MIC, Vancomycin (MDREC 1229 [4]; [9]): 32 µg/mL
Antibiotic MIC, Erythromycin (MDREC 1229 [4]; [10]): 1 µg/mL
Antibiotic MIC, Linezolid (MDREC 1229 [4]; [10]): 8 µg/mL
Antibiotic MIC, Vancomycin (MDREC 1229 [4]; [10]): 16 µg/mL
Antibiotic MIC, Erythromycin (MDREC 1229 [4]; [11]): 0 µg/mL
Antibiotic MIC, Linezolid (MDREC 1229 [4]; [11]): 0 µg/mL
Antibiotic MIC, Vancomycin (MDREC 1229 [4]; [11]): 0 µg/mL
Antibiotic MIC, Erythromycin (MDREC 1229 [4]; [12]): 0 µg/mL
Antibiotic MIC, Linezolid (MDREC 1229 [4]; [12]): 0 µg/mL
Antibiotic MIC, Vancomycin (MDREC 1229 [4]; [12]): 0 µg/mL
Synergistic effect of antibacterial activity with existing antibiotics compared with PapMA-1 (A. baumannii; A. baumannii and MDRAB 12035): level similar to that of PapMA-1 peptide
Antibiotic MIC, Erythromycin (A. baumannii; A. baumannii, combined with peptide at 2 μg/ml): 32 µg/mL
